Measured values taken from patent US20260325533A1, “CDK INHIBITOR COMPOUNDS” (ALEKSIA THERAPEUTICS, INC., priority 2023, published 2026).
pIC50: −log10 of the molar value. Read-outs that look alike come from different tables or passages of the source.

Assays:
Format in all cases: biochemical
CDK6/CCND1 = CDK6/CCND1 (Homo sapiens, UniProt Q00534); assay: CDK6 homogeneous time-resolved fluorescence (HTRF) kinase assay; settings: CDK6/CCND
Procedure, shortened: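 Enzyme pre-incubated 20 min at 23 °C with compound, then reacted 60 min at 23 °C with 1 mM ATP and 50 nM ULight-4E-BP1 (Thr37/46) peptide; 1 nM enzyme, 1% DMSO. EDTA-stopped, Eu-anti-phospho antibody TR-FRET read (665 nm or 665/615 ratio); 11-point half-log titration from 10 μM gave IC50.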

CDK2/CCNE1 = CDK2/CCNE1 (Homo sapiens, UniProt P24941); assay: CDK2 homogeneous time-resolved fluorescence (HTRF) kinase assay; settings: CDK2/CCNE; x = IC50 <25 nM; read-out: CDK2/CCNE IC50 (<25 nM)
Procedure, shortened: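 3 nM CDK2/CCNE1 was preincubated with compound for 20 min at 23 °C in HEPES buffer (pH not stated), then reacted 60 min with 1 mM ATP and 50 nM ULight-4E-BP1 (Thr37/46) peptide. After EDTA stop, Eu-anti-phospho-4E-BP1 antibody (2 nM) was added for 60 min and TR-FRET read at 665 nm.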

CDK4/CCND3 = CDK4/CCND3 (Homo sapiens, UniProt P11802); assay: CDK4 homogeneous time-resolved fluorescence (HTRF) kinase assay; settings: CDK4/CCND
Procedure, shortened: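 Steps: compound plus 1.5 nM CDK4/CCND3, 20 min, 23 °C; add 1 mM ATP and 50 nM ULight-4E-BP1 (Thr37/46) peptide, 60 min; stop with 10 mM EDTA; add 2 nM Eu anti-phospho antibody, 60 min; read 665 nm. IC50 from 11-point half-log series starting 10 μM.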

CDK1/CCNB1 = CDK1/CCNB1 (Homo sapiens, UniProt P06493); assay: CDK1 homogeneous time-resolved fluorescence (HTRF) kinase assay; settings: CDK1/CCNB
Procedure, shortened: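 Read-out: TR-FRET (Eu anti-phospho-4E-BP1 Thr37/46 antibody, 2 nM; 665 nm or 665/615 ratio) after 60 min phosphorylation of 50 nM ULight-peptide by 0.5 nM CDK1/CCNB1 at 1 mM ATP, 23 °C. Compound preincubated 20 min with enzyme; 1% DMSO.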

[1] = x = IC50 >250 nM, read-out: CDK6/CCND IC50 (>250 nM column)
[2] = x = IC50 >250 nM, read-out: CDK4/CCND IC50 (>250 nM column)
[3] = x = IC50 >250 nM, read-out: CDK1/CCNB IC50 (>250 nM column)
[4] = x = IC50 25-250 nM, read-out: CDK1/CCNB IC50 (25-250 nM)

CDK4/CCND3, sequence (P11802 whole entry): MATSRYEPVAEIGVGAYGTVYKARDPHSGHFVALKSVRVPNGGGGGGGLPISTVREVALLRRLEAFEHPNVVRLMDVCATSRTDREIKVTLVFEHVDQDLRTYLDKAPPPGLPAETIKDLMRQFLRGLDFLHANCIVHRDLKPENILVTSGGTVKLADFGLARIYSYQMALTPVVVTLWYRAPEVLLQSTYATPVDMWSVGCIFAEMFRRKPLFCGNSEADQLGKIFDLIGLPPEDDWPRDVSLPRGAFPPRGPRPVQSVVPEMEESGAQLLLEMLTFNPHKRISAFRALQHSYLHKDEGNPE
CDK4/CCND3, sequence (P30281 whole entry partner): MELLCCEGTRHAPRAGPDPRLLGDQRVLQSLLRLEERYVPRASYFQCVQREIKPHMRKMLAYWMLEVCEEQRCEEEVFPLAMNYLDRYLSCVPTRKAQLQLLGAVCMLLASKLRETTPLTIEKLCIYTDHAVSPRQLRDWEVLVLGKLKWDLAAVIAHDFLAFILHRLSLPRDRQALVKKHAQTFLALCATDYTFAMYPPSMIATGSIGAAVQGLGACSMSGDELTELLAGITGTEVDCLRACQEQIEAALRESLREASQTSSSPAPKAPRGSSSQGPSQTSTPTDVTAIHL
CDK6/CCND1, sequence (Q00534 whole entry): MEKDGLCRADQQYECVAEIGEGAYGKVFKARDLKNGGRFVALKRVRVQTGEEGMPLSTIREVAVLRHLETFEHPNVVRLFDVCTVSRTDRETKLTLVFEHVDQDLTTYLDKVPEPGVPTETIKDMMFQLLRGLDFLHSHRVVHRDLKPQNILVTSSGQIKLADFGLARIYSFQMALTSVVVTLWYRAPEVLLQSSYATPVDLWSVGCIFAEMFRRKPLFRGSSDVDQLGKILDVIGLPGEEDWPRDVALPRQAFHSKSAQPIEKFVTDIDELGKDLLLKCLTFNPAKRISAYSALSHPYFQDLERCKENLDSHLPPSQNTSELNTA
CDK6/CCND1, sequence (P24385 whole entry partner): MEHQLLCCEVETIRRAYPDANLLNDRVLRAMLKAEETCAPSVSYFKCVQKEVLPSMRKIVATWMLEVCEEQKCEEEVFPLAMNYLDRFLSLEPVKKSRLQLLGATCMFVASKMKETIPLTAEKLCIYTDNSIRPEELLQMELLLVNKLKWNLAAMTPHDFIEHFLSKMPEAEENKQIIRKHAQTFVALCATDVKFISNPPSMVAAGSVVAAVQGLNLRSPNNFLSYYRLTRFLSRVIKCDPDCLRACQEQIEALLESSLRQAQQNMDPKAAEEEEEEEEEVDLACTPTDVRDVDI
CDK1/CCNB1, sequence (P06493 whole entry): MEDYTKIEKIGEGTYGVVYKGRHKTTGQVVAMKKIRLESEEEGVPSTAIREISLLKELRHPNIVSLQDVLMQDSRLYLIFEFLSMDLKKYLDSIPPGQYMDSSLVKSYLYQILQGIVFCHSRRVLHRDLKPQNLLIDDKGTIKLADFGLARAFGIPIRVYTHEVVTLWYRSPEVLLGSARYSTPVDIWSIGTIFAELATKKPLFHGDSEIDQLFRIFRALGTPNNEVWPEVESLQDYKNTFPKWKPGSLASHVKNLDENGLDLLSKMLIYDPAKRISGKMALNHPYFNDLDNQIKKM
CDK1/CCNB1, sequence (P14635 whole entry partner): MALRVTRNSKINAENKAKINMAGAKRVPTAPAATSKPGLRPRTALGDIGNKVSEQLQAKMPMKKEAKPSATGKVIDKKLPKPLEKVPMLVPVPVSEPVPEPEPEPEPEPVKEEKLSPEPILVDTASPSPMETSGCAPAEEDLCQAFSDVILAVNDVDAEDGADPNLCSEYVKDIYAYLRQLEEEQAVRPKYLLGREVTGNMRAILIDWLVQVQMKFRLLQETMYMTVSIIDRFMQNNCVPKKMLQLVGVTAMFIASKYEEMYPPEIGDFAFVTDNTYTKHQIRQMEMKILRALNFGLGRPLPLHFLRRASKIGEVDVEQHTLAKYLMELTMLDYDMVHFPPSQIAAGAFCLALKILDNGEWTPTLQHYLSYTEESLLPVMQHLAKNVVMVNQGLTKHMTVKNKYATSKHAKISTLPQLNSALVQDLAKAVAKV

| SMILES | pIC50 (CDK6/CCND1; [1]) | pIC50 (CDK2/CCNE1) | pIC50 (CDK4/CCND3; [2]) | pIC50 (CDK1/CCNB1; [3]) | pIC50 (CDK1/CCNB1; [4]) | pIC50 (CDK6/CCND1; x = IC50 25-250 nM, read-out: CDK6/CCND IC50 (25-250 nM)) | pIC50 (CDK4/CCND3; x = IC50 25-250 nM, read-out: CDK4/CCND IC50 (25-250 nM)) |
| --- | --- | --- | --- | --- | --- | --- | --- |
| CC1(C)C(=O)Nc2cc(C#Cc3nccc4cnc(Nc5ccc(S(C)(=O)=O)cc5O)cc34)ccc21 [Ex 380, 6-((7-((2-hydroxy-4-(methylsulfonyl)phenyl)amino)-2,6-naphthyridin-1-yl)ethynyl)-3,3-dimethylindolin-2-one] | < 6.60 | > 7.60 | < 6.60 | < 6.60 | – | – | – |
| O=C1Nc2cc(C#Cc3nccc4cnc(Nc5ccc(S(=O)(=O)C6CC6)cc5)cc34)ccc2C12CCC2 [Ex 385, 6'-((7-((4-(cyclopropylsulfonyl)phenyl)amino)-2,6-naphthyridin-1-yl)ethynyl)spiro[cyclobutane-1,3'-indolin]-2'-one] | < 6.60 | > 7.60 | < 6.60 | – | 6.60 to 7.60 | – | – |
| CC(C)S(=O)(=O)c1ccc(Nc2cc3c(C#Cc4ccc5c(c4)NC(=O)C54CC4)nccc3cn2)cc1 [Ex 393, 6'-((7-((4-(isopropylsulfonyl)phenyl)amino)-2,6-naphthyridin-1-yl)ethynyl)spiro[cyclopropane-1,3'-indolin]-2'-one] | < 6.60 | > 7.60 | < 6.60 | – | 6.60 to 7.60 | – | – |
| O=C1Nc2cc(C#Cc3nccc4cnc(Nc5ccc(S(=O)(=O)C6CCC6)cc5)cc34)ccc2C12CC2 [Ex 394, 6'-((7-((4-(cyclobutylsulfonyl)phenyl)amino)-2,6-naphthyridin-1-yl)ethynyl)spiro[cyclopropane-1,3'-indolin]-2'-one] | < 6.60 | > 7.60 | < 6.60 | – | 6.60 to 7.60 | – | – |

Now from value to compound:

| pIC50 (CDK6/CCND1; [1]) | pIC50 (CDK2/CCNE1) | pIC50 (CDK4/CCND3; [2]) | pIC50 (CDK1/CCNB1; [3]) | pIC50 (CDK1/CCNB1; [4]) | pIC50 (CDK6/CCND1; x = IC50 25-250 nM, read-out: CDK6/CCND IC50 (25-250 nM)) | pIC50 (CDK4/CCND3; x = IC50 25-250 nM, read-out: CDK4/CCND IC50 (25-250 nM)) | SMILES |
| --- | --- | --- | --- | --- | --- | --- | --- |
| < 6.60 | > 7.60 | < 6.60 | < 6.60 | – | – | – | Cc1cc(S(C)(=O)=O)ccc1Nc1cc2c(C#Cc3ccc4c(c3)NC(=O)C43CCC3)nccc2cn1 [Ex 381, 6'-((7-((2-methyl-4-(methylsulfonyl)phenyl)amino)-2,6-naphthyridin-1-yl)ethynyl)spiro[cyclobutane-1,3'-indolin]-2'-one] |
| < 6.60 | > 7.60 | < 6.60 | < 6.60 | – | – | – | CC(C)S(=O)(=O)c1ccc(Nc2cc3c(C#Cc4ccc5c(c4)NC(=O)C54CCC4)nccc3cn2)cc1 [Ex 386, 6'-((7-((4-(isopropylsulfonyl)phenyl)amino)-2,6-naphthyridin-1-yl)ethynyl)spiro[cyclobutane-1,3'-indolin]-2'-one] |
| < 6.60 | > 7.60 | < 6.60 | – | 6.60 to 7.60 | – | – | O=C1Nc2cc(C#Cc3nccc4cnc(Nc5ccc(S(=O)(=O)C6CCC6)cc5)cc34)ccc2C12CCC2 [Ex 387, 6'-((7-((4-(cyclobutylsulfonyl)phenyl)amino)-2,6-naphthyridin-1-yl)ethynyl)spiro[cyclobutane-1,3'-indolin]-2'-one] |
| < 6.60 | > 7.60 | < 6.60 | – | 6.60 to 7.60 | – | – | O=C1Nc2cc(C#Cc3nccc4cnc(Nc5ccc(S(=O)(=O)C6CC6)cc5)cc34)ccc2C12CC2 [Ex 392, 6'-((7-((4-(cyclopropylsulfonyl)phenyl)amino)-2,6-naphthyridin-1-yl)ethynyl)spiro[cyclopropane-1,3'-indolin]-2'-one] |
| < 6.60 | > 7.60 | < 6.60 | < 6.60 | – | – | – | CCC1(CC)C(=O)Nc2cc(C#Cc3nccc4cnc(Nc5ccc(S(C)(=O)=O)cc5OC)cc34)ccc21 [Ex 396, 3,3-diethyl-6-((7-((2-methoxy-4-(methylsulfonyl)phenyl)amino)-2,6-naphthyridin-1-yl)ethynyl)indolin-2-one] |
| – | > 7.60 | – | – | 6.60 to 7.60 | 6.60 to 7.60 | 6.60 to 7.60 | CCS(=O)(=O)c1ccc(Nc2cc3c(C#Cc4ccc5c(c4)NC(=O)C54CC4)nccc3cn2)cc1 [Ex 397, 6'-((7-((4-(ethylsulfonyl)phenyl)amino)-2,6-naphthyridin-1-yl)ethynyl)spiro[cyclopropane-1,3'-indolin]-2'-one] |
